Legend:
[1] = Obesity Food Intake Model - Fasted-Induced Feeding Assay; type: in vivo, rat; settings: fasted male CD rats; for effect on food intake (fasting-induced refeeding): 10 mg/kg, given 30 minutes prior to return of food, vs vehicle-treated control; for fasting-induced refeeding, dose dependence: Compound IIA 0.1, 1, 10 mg/kg, Compound IIIA 1, 3, 10, 32 mg/kg, comparator rimonabant 3 mg/kg
Protocol: PDE10 inhibitors were also tested for efficacy in reducing the acute re-feeding response following food withdrawal. Male CD rats were fasted overnight. Rats were administered a PDE10 inhibitor (Compound IIA and IIIA in separate tests) 30 minutes prior to the return of food. Food consumption was monitored and weighed at predetermined time points and the effect of PDE10 inhibitors were compared to vehicle-treated control rats.
Compound IIA, Compound IIIA and rimonabant were tested in the fasted-induced feeding assay described above. Compound IIA was tested at 10 mg/kg, 1 mg/kg and 0.1 mg/kg; Compound IIIA was tested at 32 mg/kg, 10 mg/kg, 3 mg/kg and 1 mg/kg; and rimonabant was tested at 3 mg/kg. Both Compound IIA and Compound IIIA were efficacious at 10 mg/kg.

[2] = Body weight and food intake in diet-induced obese (DIO) mice; type: in vivo, mouse; settings: 15 mg/kg twice daily po
Protocol: Mice were individually housed and divided into two groups: a group of control mice which remained on Purina 5001 chow; and another group which was switched to a diet composed of 45 kcal % fat (D12331 Rodent Diet, Research Diets, Inc., New Brunswick, N.J.) for the duration of the 6 week study. Food intake was measured on a 24-hour, 5 days/week cycle (Monday-Friday). Body weight was determined on Day 0 and thereafter at the same time that food intake was measured. For testing the effects of a PDE10 inhibitor on body weight and oxygen consumption, a mouse model of diet-induced obesity (DIO) was used. Obesity was induced in the mice by maintaining them on a 45% fat diet for more than 14 weeks. DIO mice were treated with Compound IVA at a dose of 15 mg/kg, administered twice daily (p.o.) for 14 days. Control mice were administered a vehicle of 0.5% methylcellulose. Measurements were made as previously described. DIO mice were treated with Compound IVA at a dose of 15 mg/kg administered twice daily (po). Control mice were administered the vehicle, 0.5% methylcellulose. […] Oxygen consumption was determined in the Compound IV and vehicle treated mice at the end of the study.

[3] = Oxygen consumption in diet-induced obese (DIO) mice; type: in vivo, mouse; settings: 15 mg/kg twice daily po, at the end of the study, vs vehicle
Protocol: Following determination of body composition, energy expenditure and oxygen consumption were determined using an Oxymax system (Columbus Instruments, Columbus, Ohio). Mice were housed under standard laboratory conditions and maintained on the experimental diet. Mice were acclimated to sealed chambers (8″×4″×5.5″) of the calorimeter (one mouse per chamber). The chambers were placed in activity monitors. The calorimeter was calibrated before each use, airflow was adjusted to 1.6 liters/min, and the system setting and sampling times were set to 60 seconds and 15 seconds, respectively. Oxygen consumption, carbon dioxide production, and ambulatory activity were measured every 10 minutes for a period of 4 hours. For testing the effects of a PDE10 inhibitor on body weight and oxygen consumption, a mouse model of diet-induced obesity (DIO) was used. Obesity was induced in the mice by maintaining them on a 45% fat diet for more than 14 weeks. DIO mice were treated with Compound IVA at a dose of 15 mg/kg, administered twice daily (p.o.) for 14 days. Control mice were administered a vehicle of 0.5% methylcellulose. Measurements were made as previously described. DIO mice were treated with Compound IVA at a dose of 15 mg/kg administered twice daily (po). […] Oxygen consumption was determined in the Compound IV and vehicle treated mice at the end of the study.

SMILES | effect on food intake (fasting-induced refeeding) [1] | fasting-induced refeeding, dose dependence [1] | body weight change ([2]; 14 days, vs vehicle 0.5% methylcellulose) | onset of weight loss ([2]; apparent on the 4th day) | food intake ([2]; vs vehicle 0.5% methylcellulose) | oxygen consumption [3]
COc1cc2ncnc(N3CC[C@@H](Oc4cnc5ccccc5n4)C3)c2cc1OC (stereo in doubt) [Compound IIA, 6,7-Dimethoxy-4-[3-(quinoxalin-2-yloxy)-pyrrolidin-1-yl]-quinazoline] | efficacious | reduce fasting-induced refeeding in the rats in a dose dependent fashion | – | – | – | –
c1ccc2nc(COc3ccc(-c4[nH]ncc4-c4ccncc4)cc3)ccc2c1 [Compound IVA, 2-[4-(4-Pyridin-4-yl-2H-pyrazol-3-yl)-phenoxymethyl]-quinoline] | – | – | led to weight loss | after three days treatment | small reduction in food intake | slight non-significant increase in oxygen consumption
COc1cc2nc(N3CCNCC3)nc(-c3ccccc3F)c2cc1OC [Compound IIIA, 4-(2-Fluorophenyl)-6,7-dimethoxy-2-piperazin-1-yl-quinazoline] | efficacious | reduce fasting-induced refeeding in the rats in a dose dependent fashion | – | – | – | –
